{"source": "patent US6525027B2", "about": "“Use of ribose supplementation for increasing muscle mass and decreasing body fat in humans” (Bioenergy Inc., priority 2000, dated 2003)", "assay_type_in_all_cases": "in vivo, humans", "key": {"[1]": {"test": "Performance measures: maximum weight lifted once (1RM), bench press and squat, after 10 weeks of training", "from_the_text": "(§1) The study subjects were healthy males, ages 18 to 40, with previous weight training experience. […] Pages 111-112.\n(§2) The duration of the study was 10 weeks and included a supplementation regime of D-Ribose or D-Glucose as placebo control, combined with resistance weight training. The subjects were divided into two matched groups, four subjects received D-Ribose and two subjects received placebo.\nInitial performance measures were individualized to each subject. The maximum weight each subject could lift once (1RM) was determined for the bench press and the squat lift. The maximal repetitions that each subject was able to lift of their own body weight was determined. Each subject performed as many repetitions as possible, followed by a one-minute rest and then repeated. The sets were continued until no weight could be lifted, limited by a maximum of 10 sets.\n(§3) There were four training sessions per week. At each training session, the subject was accompanied by a supervisor to ensure proper lifting technique, safety and efficiency of the training session. D-Ribose or placebo at a dose of 5 gm was taken one-half hour before and one-half after the training session. On the three days per week when the subjects were not trained, the subjects were allowed to consume the supplement at their convenience. […]"}, "[2]": {"test": "Change in body weight after 10 weeks of training", "settings": "placebo group remained the same", "experimental": "as §1, §2\n(§4) Baseline testing was conducted before training and supplementation. Prior to any testing the subjects were required to read and sign an informed consent document. Subject information to be collected prior to the start of the exercise regimen included age, height, weight, body composition and performance measures. The body composition was determined by hydrostatic weighing and skinfold measurements to determine beginning percentage muscle mass and percentage body fat.\nas §3"}, "[3]": {"test": "Skinfold test, % body fat, before and after 10 weeks of weight training with supplementation", "experimental": "as §1, §2, §4\n(§5) There were four training sessions per week. At each training session, the subject was accompanied by a supervisor to ensure proper lifting technique, safety and efficiency of the training session. D-Ribose or placebo at a dose of 5 gm was taken one-half hour before and one-half after the training session. On the three days per week when the subjects were not trained, the subjects were allowed to consume the supplement at their convenience. Dietary recalls were also kept on Tuesday, Wednesday and Thursday of each week, but not dietary requirements were imposed.\n(§6) The lifting sessions were designed to exercise mainly the largest muscles of the body, that is, arm, leg, abdominals and back. All lifting sessions were preceded by warm-up sets of 20 repetitions at low weights. After week 4, the weight to be lifted was increased when the subject was able to do the maximum number of reps for all three sets. There was a 2-minute rest between each set and a 5 minute rest between each exercise. The lifting sessions were as follows:\n(§7) Following the training period of 10 weeks, the subjects were tested as for the pre-testing procedure. […]"}, "[4]": {"test": "Underwater weight test (hydrostatic weighing), % body fat, before and after 10 weeks of weight training with supplementation", "experimental": "as §1, §2, §4, §5, §6, §7"}, "[5]": {"settings": "group average of four subjects, post compared to pre-training"}, "[6]": {"settings": "individual subjects, after 10 weeks of weight training, 5 gm before and after each session"}, "[7]": {"settings": "individual subjects, post training compared to pre-training"}, "[8]": {"settings": "individual subjects, pre-training baseline"}}, "note": "Several values for one entry are separate records, joined by “and”; a condition that tells them apart may be missing. Equal values may be shown once.", "data": [{"smiles": "O=C[C@H](O)[C@H](O)[C@H](O)CO", "note": "[Ribose, D-Ribose]", "values": [{"measurement": "Increase in 1 RM Squat re-test", "setting": "[1]; placebo group 12 pounds", "value": 45.5, "unit": "pounds"}, {"measurement": "Increase in weight lifted once in the bench press (1RM)", "setting": "[1]; placebo group improved by 10 pounds", "value": 10.5, "unit": "pounds"}, {"measurement": "Average increase in body weight", "setting": "[2]", "value": 3.4, "unit": "pounds"}, {"measurement": "Skinfold Test, % Body Fat, Difference, Average", "setting": "[3]; [5]", "value": "−3.1", "unit": "%"}, {"measurement": "Skinfold Test, % Body Fat, Post", "setting": "[3]; [6]", "value": "26.2% and 14.2% and 18.0% and 11.5%"}, {"measurement": "Skinfold Test, % Body Fat, Difference", "setting": "[3]; [7]", "value": "−2.8% and −2.4% and −3.7% and −3.3%"}, {"measurement": "Skinfold Test, % Body Fat, Pre", "setting": "[3]; [8]", "value": "29.0% and 16.6% and 21.7% and 14.8%"}, {"measurement": "Decrease in subcutaneous body fat (skinfold test) compared with placebo", "setting": "[3]; ten week period, in words", "value": "greater decrease in body fat"}, {"measurement": "Underwater Weight Test, % body fat, Difference, Average", "setting": "[4]; [5]", "value": "−1.3", "unit": "%"}, {"measurement": "Underwater Weight Test, % body fat, Post", "setting": "[4]; [6]", "value": "18.5% and 23.6% and 12.5% and 27.8%"}, {"measurement": "Underwater Weight Test, % body fat, Difference", "setting": "[4]; [7]", "value": "+0.8% and −1.1% and −5.0% and −21.9%"}, {"measurement": "Underwater Weight Test, % body fat, Pre", "setting": "[4]; [8]", "value": "17.7% and 22.5% and 17.5% and 29.7%"}, {"measurement": "Decrease in total body fat (underwater weight test) compared with placebo", "setting": "[4]; ten week period, in words", "value": "greater decrease in body fat"}]}]}
